Where “and” joins values, the source holds several entries; their conditions need not be identical. Equal values may be shown once. Marks after values point to notes of the source that are not given here.
Experiments:
prostaglandin E2 (PGE2) = experiment: In vivo estimation of rat serum prostaglandin E2 (PGE2); settings: carrageenan-injected rats, 10 µmol/kg b.wt po, after 8 h; for PGE2 Serum Conc.: mean ± SEM, n = 5
Procedure: Measuring plasma levels of prostaglandin E2 is one of the substantial parameters in confirming the in vivo COX-2 inhibition.
(approved by HU-IACUC). For more details, see Page S16, Supplementary File. […]
4.2.4. Estimation of rat serum prostaglandin E2 (PGE2) […]
procedure using EIA PGE2 kit (Aldrich, Steinheim, Germany). The kits as well as blood samples were […]
to a monoclonal antibody to PGE2 in kit. Excess reagents were removed followed by adding the substrate was added and incubated for short time. When a yellow color generate the optical density […]

[1] = tested on: carrageenan-induced paw edema; experiment: In vivo carrageenan-induced paw edema in mice; settings: for Thickness of Edema, 0 h / percentage anti-inflammatory activity (AI%), 2 h / Thickness of Edema, 2 h / percentage anti-inflammatory activity (AI%), 4 h / Thickness of Edema, 4 h / percentage anti-inflammatory activity (AI%), 6 h / Thickness of Edema, 6 h / percentage anti-inflammatory activity (AI%), 8 h / Thickness of Edema, 8 h: 10 µmol/kg b.wt po; for Thickness of Edema, 0 h / Thickness of Edema, 2 h / Thickness of Edema, 4 h / Thickness of Edema, 6 h / Thickness of Edema, 8 h: mean ± SEM, n = 5; for percentage anti-inflammatory activity (AI%), 2 h / Thickness of Edema, 2 h: 2 h after carrageenan; for percentage anti-inflammatory activity (AI%), 4 h / Thickness of Edema, 4 h: 4 h after carrageenan; for percentage anti-inflammatory activity (AI%), 6 h / Thickness of Edema, 6 h: 6 h after carrageenan; for percentage anti-inflammatory activity (AI%), 8 h / Thickness of Edema, 8 h: 8 h after carrageenan; for ED50: Mus musculus, paw edema inhibition 8 h after carrageenan, doses 5, 10, 20, 30 and 40 µmol/kg, read-out: ED50 (95% Confidence Level)
[2] = molecular target: T1, (Ovis aries, UniProt P05979); experiment: In vitro human COX-1 enzymatic inhibitory activity (Cayman COX inhibitor screening assay kit); type: biochemical; settings: mean ± SEM of triplicate determinations
T1 construct: purchased Cayman Chemicals Inc., Ann Arbor, MI, USA 560131
T1 sequence (P05979 25-600): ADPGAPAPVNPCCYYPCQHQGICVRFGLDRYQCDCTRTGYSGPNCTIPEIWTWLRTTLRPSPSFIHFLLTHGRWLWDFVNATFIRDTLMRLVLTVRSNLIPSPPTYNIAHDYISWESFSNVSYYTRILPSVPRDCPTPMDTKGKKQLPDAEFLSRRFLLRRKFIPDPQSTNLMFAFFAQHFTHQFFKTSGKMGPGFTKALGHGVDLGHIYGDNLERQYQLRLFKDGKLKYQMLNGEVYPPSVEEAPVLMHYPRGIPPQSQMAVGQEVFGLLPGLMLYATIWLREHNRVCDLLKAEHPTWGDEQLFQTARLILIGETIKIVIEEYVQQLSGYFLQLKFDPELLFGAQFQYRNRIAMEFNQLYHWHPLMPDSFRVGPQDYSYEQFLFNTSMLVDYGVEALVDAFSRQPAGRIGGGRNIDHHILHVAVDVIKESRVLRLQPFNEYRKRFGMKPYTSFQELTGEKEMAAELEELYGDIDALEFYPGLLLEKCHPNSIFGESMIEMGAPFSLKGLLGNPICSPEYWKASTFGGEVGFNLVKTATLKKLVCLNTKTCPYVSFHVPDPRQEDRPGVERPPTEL
Procedure: (§1) Inhibitory activities were defined as a test compound concentration achieving 50% human COX-1 or human COX-2 inhibition. The selectivity of compounds was referred to as a compound’s selectivity index values calculated as IC50 (COX-1)/IC50 (COX-2).
(§2) In vitro human COX-1 and human COX-2 enzymatic inhibitory activity of the tested compounds as well as the reference drugs was carried out according to the previously mentioned procedures; for details, see Page S15, Supplementary File.
(§3) 4.2. Biological screening
(§4) 4.2.1. In vitro human COX-1 and human COX-2 enzymatic inhibitory activities In vitro human COX-1 and human COX-2 enzymatic inhibitory activity of the tested compounds as well as the reference drugs was carried out according to the previously mentioned procedures [1][2]depending on Cayman colorimetric COX (ovine) inhibitor screening assay kit (Catalog No.
(§5) All reagents, test solutions and experimental procedures were performed in correspondence to both the manufacturer’s instructions and previously reported methods. Briefly, […] of different concentrations of tested compound solutions were added to a series of supplied reaction buffer solutions (960 µL, 0.1 M Tris-HCl, pH 8.0 containing 5 mM EDTA and 2 mM phenol) with either COX-1 or COX-2 (10 µL) enzyme in the presence of heme (10 µL). 10 µL of Arachidonic Acid (100 µM) solution were added to the mixtures of the enzyme and tested compounds, After incubating for 5 min at 25 °C followed by stopping COX reaction by adding of 50 µL of 1 M HCl. Moreover, after adding 100 µL of saturated stannous chloride solution, the absorbance was measured spectrophotometrically using plate reader. measuring the […]
(§6) percentage of human COX-1 or human COX-2 enzymatic inhibition of five different concentrations of each compound and then concentration-inhibition response curve were plotted to obtain IC50 values(three determinations). […]

human COX-2 = molecular target: T2, human COX-2 (Homo sapiens, UniProt P35354); experiment: In vitro human COX-2 enzymatic inhibitory activity (Cayman COX inhibitor screening assay kit); type: biochemical; settings: for SI COX-1/COX-2: COX-2 selectivity index: COX-1 IC50/COX-2 IC50; for IC50: mean ± SEM of triplicate determinations
T2 construct: purchased Cayman Chemicals Inc., Ann Arbor, MI, USA 560131
T2 sequence (P35354 18-604): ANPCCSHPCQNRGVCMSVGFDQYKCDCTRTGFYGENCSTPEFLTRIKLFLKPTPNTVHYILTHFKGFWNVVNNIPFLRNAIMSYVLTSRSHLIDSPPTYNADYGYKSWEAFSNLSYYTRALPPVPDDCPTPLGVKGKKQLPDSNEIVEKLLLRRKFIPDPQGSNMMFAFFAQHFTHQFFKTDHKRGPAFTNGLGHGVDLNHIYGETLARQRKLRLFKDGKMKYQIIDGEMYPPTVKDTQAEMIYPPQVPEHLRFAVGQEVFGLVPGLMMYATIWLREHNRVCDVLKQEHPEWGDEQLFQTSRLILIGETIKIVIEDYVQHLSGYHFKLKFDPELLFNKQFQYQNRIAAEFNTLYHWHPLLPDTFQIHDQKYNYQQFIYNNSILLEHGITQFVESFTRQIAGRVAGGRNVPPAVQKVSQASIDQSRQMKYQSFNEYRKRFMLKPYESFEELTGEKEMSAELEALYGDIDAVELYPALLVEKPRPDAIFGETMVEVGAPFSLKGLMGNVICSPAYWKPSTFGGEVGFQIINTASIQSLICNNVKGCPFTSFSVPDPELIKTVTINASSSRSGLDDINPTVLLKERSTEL
Procedure: as §1, §2, §3, §4, §5, §6

Cc1ccc(-c2cc(C(F)(F)F)nn2-c2ccc(S(N)(=O)=O)cc2)cc1 [Celecoxib, celecoxib, reference compound]
% Inhibition of PGE2 production (prostaglandin E2 (PGE2)): 78.62% | PGE2 Serum Conc. (prostaglandin E2 (PGE2)): 157.245 ± 7.33 ^c,d pg/mL | % Inhibition of PGE2 production (prostaglandin E2 (PGE2); listed as celecoxib): 78.62% | Thickness of Edema, 0 h [1]: 2.10 ± 0.005 mm | percentage anti-inflammatory activity (AI%), 2 h [1]: 70.86% | Thickness of Edema, 2 h [1]: 2.54 ± 0.007 mm | percentage anti-inflammatory activity (AI%), 4 h [1]: 79.27% | Thickness of Edema, 4 h [1]: 2.44 ± 0.011 mm | percentage anti-inflammatory activity (AI%), 6 h [1]: 87.28% | Thickness of Edema, 6 h [1]: 2.32 ± 0.010 mm | percentage anti-inflammatory activity (AI%), 8 h [1]: 89.01% | Thickness of Edema, 8 h [1]: 2.30 ± 0.009 mm | ED50 [1]: 16.2 µmol/kg

[N-]=[N+]=Nc1ccc(S(=O)(=O)Nc2ncccn2)cc1 [Compound 1c, 4-Azido-N-(pyrimidin-2-yl)benzenesulfonamide]
IC50 [2]: 5930 ± 88.2 nM | SI COX-1/COX-2 (human COX-2): 65.89 | IC50 (human COX-2): 90 ± 0.6 nM

Cc1ccnc(NS(=O)(=O)c2ccc(N=[N+]=[N-])cc2)n1 [Compound 1d, 4-Azido-N-(4-methylpyrimidin-2-yl)benzenesulfonamide]
IC50 [2]: 4600 ± 115 nM | SI COX-1/COX-2 (human COX-2): 46 | IC50 (human COX-2): 100 ± 3.3 nM

CC(=NNC(=O)C(C)c1ccc(CC(C)C)cc1)c1nnn(-c2ccc(S(=O)(=O)Nc3nccs3)cc2)c1C (stereo not shown) [Compound 6b, 4-(4-(1-(2-(2-(4-Isobutylphenyl)propanoyl)hydrazineylidene)ethyl)-5-methyl-1H-1,2,3-triazol-1-yl)-N-(thiazol-2-yl)benzenesulfonamide]
% Inhibition of PGE2 production (prostaglandin E2 (PGE2)): 90.70% | PGE2 Serum Conc. (prostaglandin E2 (PGE2)): 68.388 ± 7.13 ^c,d pg/mL | Thickness of Edema, 0 h [1]: 2.14 ± 0.006 mm | percentage anti-inflammatory activity (AI%), 2 h [1]: 86.75% | Thickness of Edema, 2 h [1]: 2.34 ± 0.009 mm | percentage anti-inflammatory activity (AI%), 4 h [1]: 94.51% | Thickness of Edema, 4 h [1]: 2.23 ± 0.009 mm | percentage anti-inflammatory activity (AI%), 6 h [1]: 97.69% | Thickness of Edema, 6 h [1]: 2.18 ± 0.009 mm | percentage anti-inflammatory activity (AI%), 8 h [1]: 99.45% | Thickness of Edema, 8 h [1]: 2.15 ± 0.007 mm | ED50 [1]: 11.7 µmol/kg | IC50 [2]: 13170 ± 120 nM | SI COX-1/COX-2 (human COX-2): 329 and 329.25 | IC50 (human COX-2): 40 ± 0.7 nM

CC(=NNC(=O)Cc1ccccc1Nc1c(Cl)cccc1Cl)c1nnn(-c2ccc(S(=O)(=O)Nc3nccs3)cc2)c1C [Compound 6e, 4-(4-(1-(2-(2-(2-((2,6-Dichlorophenyl)amino)phenyl)acetyl)hydrazineylidene)ethyl)-5-methyl-1H-1,2,3-triazol-1-yl)-N-(thiazol-2-yl)benzenesulfonamide]
% Inhibition of PGE2 production (prostaglandin E2 (PGE2)): 74.80% | PGE2 Serum Conc. (prostaglandin E2 (PGE2)): 185.329 ± 6.79 ^c,d pg/mL | Thickness of Edema, 0 h [1]: 2.12 ± 0.007 mm | percentage anti-inflammatory activity (AI%), 2 h [1]: 58.28% | Thickness of Edema, 2 h [1]: 2.75 ± 0.008 mm | percentage anti-inflammatory activity (AI%), 4 h [1]: 68.90% | Thickness of Edema, 4 h [1]: 2.63 ± 0.010 mm | percentage anti-inflammatory activity (AI%), 6 h [1]: 75.72% | Thickness of Edema, 6 h [1]: 2.54 ± 0.009 mm | percentage anti-inflammatory activity (AI%), 8 h [1]: 78.02% | Thickness of Edema, 8 h [1]: 2.52 ± 0.006 mm | ED50 [1]: 18.2 µmol/kg | IC50 [2]: 10230 ± 33.3 nM | SI COX-1/COX-2 (human COX-2): 204 and 204.6 | IC50 (human COX-2): 50 ± 0.6 nM

CC(=NNC(=O)c1ccccc1O)c1nnn(-c2ccc(S(=O)(=O)Nc3nccc(C)n3)cc2)c1C [Compound 6j, 4-(4-(1-(2-(2-Hydroxybenzoyl)hydrazineylidene)ethyl)-5-methyl-1H-1,2,3-triazol-1-yl)-N-(4-methylpyrimidin-2-yl)benzenesulfonamide]
% Inhibition of PGE2 production (prostaglandin E2 (PGE2)): 86.34% | PGE2 Serum Conc. (prostaglandin E2 (PGE2)): 100.435 ± 5.66 ^c,d pg/mL | Thickness of Edema, 0 h [1]: 2.08 ± 0.007 mm | percentage anti-inflammatory activity (AI%), 2 h [1]: 73.51% | Thickness of Edema, 2 h [1]: 2.48 ± 0.005 mm | percentage anti-inflammatory activity (AI%), 4 h [1]: 82.32% | Thickness of Edema, 4 h [1]: 2.37 ± 0.009 mm | percentage anti-inflammatory activity (AI%), 6 h [1]: 88.44% | Thickness of Edema, 6 h [1]: 2.28 ± 0.011 mm | percentage anti-inflammatory activity (AI%), 8 h [1]: 91.21% | Thickness of Edema, 8 h [1]: 2.24 ± 0.009 mm | ED50 [1]: 13.4 µmol/kg | IC50 [2]: 12500 ± 57.7 nM | SI COX-1/COX-2 (human COX-2): 312 and 312.5 | IC50 (human COX-2): 40 ± 0.6 nM

O=C(O)Cc1ccccc1Nc1c(Cl)cccc1Cl [Diclofenac, diclofenac, reference compound]
% Inhibition of PGE2 production (prostaglandin E2 (PGE2)): 72.27% | PGE2 Serum Conc. (prostaglandin E2 (PGE2)): 203.973 ± 6.35 ^c,d pg/mL | Thickness of Edema, 0 h [1]: 2.08 ± 0.006 mm | percentage anti-inflammatory activity (AI%), 2 h [1]: 41.72% | Thickness of Edema, 2 h [1]: 2.96 ± 0.009 mm | percentage anti-inflammatory activity (AI%), 4 h [1]: 55.49% | Thickness of Edema, 4 h [1]: 2.81 ± 0.009 mm | percentage anti-inflammatory activity (AI%), 6 h [1]: 67.63% | Thickness of Edema, 6 h [1]: 2.64 ± 0.01 mm | percentage anti-inflammatory activity (AI%), 8 h [1]: 72.53% | Thickness of Edema, 8 h [1]: 2.58 ± 0.01 mm | ED50 [1]: 18.4 µmol/kg

— publication PMC9609428, “Rational Design and Synthesis of New Selective COX-2 Inhibitors with In Vivo PGE2-Lowering Activity by Tethering Benzenesulfonamide and 1,2,3-Triazole Pharmacophores to Some NSAIDs” (Pharmaceuticals, 2022)
